Measurements taken from PubChem BioAssay (NCI).
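Briefly, cells in 96-well plates were exposed to five compound concentrations for 48 h, and endpoints were estimated by linear interpolation. The concentration for full growth arrest is given as TGI.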

Key:
Assay in all cases: NCI tumour cell line growth inhibition, 48 h
SK-MEL-5 melanoma = test system: SK-MEL-5 melanoma
OVCAR-8 ovarian = test system: OVCAR-8 ovarian
HCT-116 colon = test system: HCT-116 colon
CCRF-CEM leukemia = test system: CCRF-CEM leukemia
OVCAR-4 ovarian = test system: OVCAR-4 ovarian
KM12 colon = test system: KM12 colon
COLO 205 colon = test system: COLO 205 colon
MALME-3M melanoma = test system: MALME-3M melanoma
SN12C renal = test system: SN12C renal
SR leukemia = test system: SR leukemia

SMILES	TGI (SK-MEL-5 melanoma)	TGI (OVCAR-8 ovarian)	TGI (HCT-116 colon)	TGI (CCRF-CEM leukemia)	TGI (OVCAR-4 ovarian)	TGI (KM12 colon)	TGI (COLO 205 colon)	TGI (MALME-3M melanoma)	TGI (SN12C renal)	TGI (SR leukemia)
Cc1cc2nc(CC(C(F)(F)F)C(F)(F)F)oc2cc1C	12.2 µM	3.23 µM	2.64 µM	> 100 µM	6.92 µM	10.3 µM	4.98 µM	9.32 µM	–	–
Cc1cc(N)c2cc(NC(=O)Nc3ccc4nc(C)cc(N)c4c3)ccc2n1	> 100 µM	> 100 µM	> 100 µM	> 100 µM	> 100 µM	> 100 µM	> 100 µM	> 100 µM	> 100 µM	–
CC(C)(/C=N/O)/[N+]([O-])=C/c1ccccc1	> 100 µM	> 100 µM	> 100 µM	–	> 100 µM	> 100 µM	> 100 µM	> 100 µM	> 100 µM	–
CC1=C(C(=O)NCCCN(CCO)CCO)CC(C(=O)NCCCN(CCO)CCO)=C(C)N1	95.7 µM	> 100 µM	> 100 µM	77.9 µM	> 100 µM	> 100 µM	> 100 µM	–	> 100 µM	–
COC(=O)C1Cc2c([nH]c3ccccc23)-c2[nH]c3ccccc3c2CC(NC(C)=O)C(=O)N2CCCC2C(=O)N1 (centres undefined)	> 100 µM	> 100 µM	> 100 µM	> 100 µM	> 100 µM	–	> 100 µM	–	> 100 µM	> 100 µM
COc1ccc(Oc2nc3c(N)cc(C(F)(F)F)cc3nc2-c2ccccc2)cc1	> 100 µM	> 100 µM	> 100 µM	> 100 µM	> 100 µM	31.6 µM	25.6 µM	–	–	> 100 µM
CCC1OC2C(CC=C(C)C)=C3OC(C)(O)C(C)(CC)C(=O)C3=C3OC(=O)C=C1C32 (centres undefined)	34.9 µM	–	36.9 µM	> 100 µM	> 100 µM	> 100 µM	37 µM	–	–	–
CCOC(=O)[C@@]12NN=N[C@@H]1[C@H]1CO[C@H](c3ccccc3)N1C2=O	24.5 µM	23.7 µM	32.5 µM	> 100 µM	32.4 µM	35 µM	23.5 µM	26.8 µM	26.8 µM	–
Cc1ccc(O)cc1 (tested in a mixture with another compound)	> 100 µM	> 100 µM	> 100 µM	> 100 µM	> 100 µM	> 100 µM	> 100 µM	> 100 µM	> 100 µM	–
COc1cccc(/C=N/NC(=O)CN(C)C)c1O	> 100 µM	> 100 µM	> 100 µM	> 100 µM	> 100 µM	> 100 µM	> 100 µM	> 100 µM	> 100 µM	–
Clc1ccc(Nc2nnc(CNc3ccc(-c4nnc(Nc5ccc(Cl)cc5)o4)cc3)o2)cc1	33.4 µM	25.7 µM	33.7 µM	> 100 µM	42.6 µM	23.3 µM	36.3 µM	28.5 µM	36.9 µM	–
NNC(=S)NN/C=C(\C=Nc1ccccc1)[N+](=O)[O-]	–	> 100 µM	> 100 µM	–	> 100 µM	–	> 100 µM	> 100 µM	> 100 µM	–
CN(C)CCNC(=O)c1cccc2[nH]c(-c3ccc(Cl)cc3)nc12	16.7 µM	20.8 µM	13.8 µM	35.7 µM	21.2 µM	20.9 µM	9.29 µM	19.9 µM	19.4 µM	–
O=C1c2ccccc2C(=O)c2c(NCC3CO3)cccc21 (centres undefined)	> 95.7 µM	24.8 µM	17.6 µM	7.71 µM	> 100 µM	> 76.3 µM	> 100 µM	> 100 µM	20.1 µM	–
COc1cc(C(=O)N(C(=O)N2CCCCC2)c2ccccc2)cc(OC)c1OC	> 100 µM	> 100 µM	> 100 µM	> 100 µM	–	> 100 µM	> 100 µM	–	> 100 µM	> 100 µM
COc1cc2c(cc1OC)-c1[nH]c3ccc([N+](=O)[O-])cc3c1CC(=O)N2	5.87 µM	> 100 µM	–	> 37.6 µM	> 32.1 µM	> 56.1 µM	0.811 µM	9.34 µM	> 55.1 µM	–
O=C1[C@H](O)[C@@H]2CCC[C@@]23CCCN13	> 100 µM	> 100 µM	> 100 µM	> 100 µM	–	> 100 µM	> 100 µM	–	> 100 µM	> 100 µM
CCc1n[nH]c(=O)n1N=C(c1ccccc1)c1ccccc1	> 100 µM	> 100 µM	> 100 µM	> 100 µM	> 100 µM	> 100 µM	> 100 µM	> 100 µM	> 100 µM	–
COCC1N=C(c2cc(OC)c(OC)c(OC)c2-c2cc3c(cc2[C@@H](C)O)OCO3)O[C@H]1c1ccccc1 (some centres undefined)	> 100 µM	> 100 µM	> 100 µM	> 100 µM	> 100 µM	> 100 µM	> 100 µM	> 100 µM	> 100 µM	–
Brc1ccc(C[N+]23CN4CN(CN(C4)C2)C3)cc1	–	99.7 µM	79.8 µM	62.9 µM	–	> 100 µM	69.4 µM	71.5 µM	62.4 µM	–
